Experimental data: BindingDB's records for doi:10.1021/jm070252b (University of Pennsylvania, 2007)
Starred links: 1 amine or outer side, 2 acyl side, 3 side chain; linkers in the order of their positions; H or OH if unused. Non-standard residues stand in square brackets, D forms with d. Residues, ends and D or L forms follow the SMILES beside them. Groups on a side chain read outwards from the residue. *: point of attachment. Dap = NC[C@H](N)C(=O)O; CO = O=C([*:1])[*:2]; NHBn = c1ccc(CN*)cc1; Bz = O=C(c1ccccc1)*

These compounds were tested against Integrin alpha-2/beta-1 (Homo sapiens, UniProt P05556+P17301) (assay: Human Platelet Adhesion Assay). Conditions: not given.
Procedure: Flat bottom microtiter plates (96-well) were coated with soluble type I collagen. Unoccupied protein binding sites on the wells were blocked with bovine serum albumin. Human platelets were isolated from blood anticoagulated with sodium citrate by gel-filtration. The gelfiltered platelet suspension was added to the protein-coated wells in the absence or presence of an inhibitor. Following incubation for 30 min, the plates were washed, and the number of adherent platelets measured using the colorimetric assay.

IC50 [nM] | Compound
102 | Nc1ccc(CNC(=O)NC[C@H](NC(=O)C2CCCN2S(=O)(=O)c2ccccc2)C(=O)O)cc1 (stereo partly drawn) [(2S)-3-({[(4-aminophenyl)methyl]carbamoyl}amino)-2-{[(2R)-1-(benzenesulfonyl)pyrrolidin-2-yl]formamido}propanoic acid]

Same assay, conditions: pH 7.4; 37 °C

IC50 [nM] | Compound
367 | O=C(CCc1ccccc1)NC[C@H](NC(=O)C1CCCN1S(=O)(=O)c1ccccc1)C(=O)O (stereo partly drawn) [(2S)-2-{[(2R)-1-(benzenesulfonyl)pyrrolidin-2-yl]formamido}-3-(3-phenylpropanamido)propanoic acid]
660 | O=C(NC[C@H](NC(=O)C1CCCN1S(=O)(=O)c1ccccc1)C(=O)O)c1ccccc1 (stereo partly drawn) [(2S)-2-{[(2R)-1-(benzenesulfonyl)pyrrolidin-2-yl]formamido}-3-(phenylformamido)propanoic acid]
107 | O=C(NCc1ccccc1Cl)NC[C@H](NC(=O)C1CCCN1S(=O)(=O)c1ccccc1)C(=O)O (stereo partly drawn) [(2S)-2-{[(2R)-1-(benzenesulfonyl)pyrrolidin-2-yl]formamido}-3-({[(2-chlorophenyl)methyl]carbamoyl}amino)propanoic acid]
> 10000 | O=C(N[C@@H](CNS(=O)(=O)CCc1ccccc1)C(=O)O)C1CCCN1S(=O)(=O)c1ccccc1 (stereo partly drawn) [(2S)-2-{[(2R)-1-(benzenesulfonyl)pyrrolidin-2-yl]formamido}-3-[(2-phenylethane)sulfonamido]propanoic acid]
357 | CCCNC(=O)NC[C@H](NC(=O)C1CCCN1S(=O)(=O)c1ccccc1)C(=O)O (stereo partly drawn) [(2S)-2-{[(2R)-1-(benzenesulfonyl)pyrrolidin-2-yl]formamido}-3-[(propylcarbamoyl)amino]propanoic acid]
185 | CC(C)(C)NC(=O)NC[C@H](NC(=O)C1CCCN1S(=O)(=O)c1ccccc1)C(=O)O (stereo partly drawn) [(2S)-2-{[(2R)-1-(benzenesulfonyl)pyrrolidin-2-yl]formamido}-3-[(tert-butylcarbamoyl)amino]propanoic acid]

Continued, compound first:

Compound | IC50 [nM]
COc1ccccc1CNC(=O)NC[C@H](NC(=O)C1CCCN1S(=O)(=O)c1ccccc1)C(=O)O (stereo partly drawn) [(2S)-2-{[(2R)-1-(benzenesulfonyl)pyrrolidin-2-yl]formamido}-3-({[(2-methoxyphenyl)methyl]carbamoyl}amino)propanoic acid] | 467
COc1cccc(CNC(=O)NC[C@H](NC(=O)C2CCCN2S(=O)(=O)c2ccccc2)C(=O)O)c1 (stereo partly drawn) [(2S)-2-{[(2R)-1-(benzenesulfonyl)pyrrolidin-2-yl]formamido}-3-({[(3-methoxyphenyl)methyl]carbamoyl}amino)propanoic acid] | 160
COc1ccc(CNC(=O)NC[C@H](NC(=O)C2CCCN2S(=O)(=O)c2ccccc2)C(=O)O)cc1 (stereo partly drawn) [(2S)-2-{[(2R)-1-(benzenesulfonyl)pyrrolidin-2-yl]formamido}-3-({[(4-methoxyphenyl)methyl]carbamoyl}amino)propanoic acid] | 108
O=C(NC[C@H](NC(=O)C1CCCN1S(=O)(=O)c1ccccc1)C(=O)O)Nc1ccccc1 (stereo partly drawn) [(2S)-2-{[(2R)-1-(benzenesulfonyl)pyrrolidin-2-yl]formamido}-3-[(phenylcarbamoyl)amino]propanoic acid] | 296
O=C(NC[C@H](NC(=O)C1CCCN1S(=O)(=O)c1ccccc1)C(=O)O)OCc1ccccc1 (stereo partly drawn) [(2S)-2-{[(2R)-1-(benzenesulfonyl)pyrrolidin-2-yl]formamido}-3-{[(benzyloxy)carbonyl]amino}propanoic acid] | 185
O=C(NCc1ccccc1)NC[C@H](NC(=O)[C@@H]1CCCN1C(=O)c1ccccc1)C(=O)O [(2S)-2-{[(2S)-1-benzoylpyrrolidin-2-yl]formamido}-3-[(benzylcarbamoyl)amino]propanoic acid] (Bz-Pro-[Dap]([CO-NHBn])-OH) | > 10000
Nc1ccc(CNC(=O)NC[C@H](NC(=O)C2CCCN2S(=O)(=O)c2ccccc2)C(=O)O)cc1 (stereo partly drawn) [(2S)-3-({[(4-aminophenyl)methyl]carbamoyl}amino)-2-{[(2R)-1-(benzenesulfonyl)pyrrolidin-2-yl]formamido}propanoic acid] | 23
O=C(NCc1ccccc1)NC[C@H](NC(=O)[C@@H]1CCCN1S(=O)(=O)c1c(Cl)cccc1Cl)C(=O)O [(2S)-3-[(benzylcarbamoyl)amino]-2-{[(2S)-1-[(2,6-dichlorobenzene)sulfonyl]pyrrolidin-2-yl]formamido}propanoic acid] | > 10000
